# Measured values from article PMC8901748, “A novel prostaglandin E receptor 4 (EP4) small molecule antagonist induces articular cartilage regeneration” (Cell Discovery, 2022).
# Experiments:
# [1] = tested on: STAT3 nuclear translocation in ATDC5 cells; assay: Immunofluorescence of STAT3 and p-STAT3 subcellular localization; type: cell-based, mouse; settings: HL-43 (30 μM), 5 ng/ml IL-1β, 24 h
# STAT-Luc in ATDC5 cells = assay: STAT-Luc luciferase reporter assay; type: cell-based, mouse; settings: 2 ng/ml IL-1β, 30 μM HL-43, 6 h
# Experimental: Six firefly luciferase reporters were used in the Luciferase assay, including CRE-Luc (PathDetect CRE cis-Reporting System; Stratagene, La Jolla CA) driven by a basic promoter (TATA box) plus four repeats of CRE; Sox9 promoter-Luc contains human SOX9 proximal promoter region (−1034 bp to +67 bp)[45]; 4 × 48-p89-Luc, mouse Col2a1 minimal promoter. AP-1-Luc, Nf-κb-Luc, STAT-Luc were obtained from Stratagene. Chondrocytes were cultured in 24-well plates and 300 ng firefly luciferase reporter constructs were transiently transfected using transfection reagent TransExellent-DNA (Cenji Biotech Inc, China) following manufacturer’s instruction, and 15 ng of the Copia-Renilla luciferase reporter was co-transfected as a normalization control. Cells were treated with the indicated reagents for 48 h after transfection. The Dual-Luciferase measurements were performed in triplicate using the Luciferase assay kit (Promega) and a LUMIstar Omega luminometer (BMG Labtech, Mornington, Australia).
# [2] = tested on: articular cartilage defect; assay: DMM surgery-induced CD mouse model; type: in vivo, mice (strain C57/BL/6); settings: Grapiprant 30 mg/kg, HL-43 10 mg/kg, compared to vehicle
# Description: EP4^f/f mice[67] were crossed with the Col2-cre strain to generate Col2-cre; EP4^f/f (EP4^Col2) mice, or were crossed with Aggrecan-creERT2[68] mice to generate EP4^f/f; Aggrecan-CreERT2 (EP4^AcanERT2) mice. Mice were maintained at the animal center of East China Normal University. All mouse experiments were approved by Ethics Committee at East China Normal University. Mice of the same genetic background were generated and raised under identical conditions. Sex-matched littermate mice were compared. For the DMM surgery-induced CD mouse model, WT mice (strain C57/BL/6) or EP4^Acan mice were used, n = 5 for each group. DMM surgery was carried out as previous described using 10-week-old male mice[69],[70]; while Sham-operated mice were used as controls. Knee joints were collected for histological analysis 6 or 8 weeks after surgery. Osteoarthritis Research Society International (OARSI) histopathology grading system was used to evaluate the sections, six sections of the articular cartilage of each mouse were evaluated. Synovitis was assessed by the synovitis score. Therapy with oral EP4 inhibitors was initiated one day after surgery and continued for 8 weeks, n = 8 for each group. EP4 inhibitors and Celecoxib were dissolved in carboxymethylcellulose sodium which is prepared at the concentration of 0.5%, and vehicle contained carboxymethylcellulose sodium alone. The vehicle, Celecoxib, Grapiprant, and HL-43 were delivered to mice at indicated doses daily by gavage, Celecoxib purchased from damas-beta (29322B), Grapiprant was purchased from Yuduobio, Shanghai, all other EP4 antagonists were synthesized by Dr. Hankun Zhang’s lab.
# Von Frey nylon filaments were used to test the hind-paw reflex sensitivity to punctate static mechanical stimuli. Mice were habituated to the wire mesh bottom cages for 30 min before the test. von Frey filaments (Aesthesio von Frey Kit, Ugo Basile, Varese, Italy) were applied from underneath the mouse in ascending order to the mid-plantar surface of the hind paws. If withdrawal response was not induced, the next level of von Frey hair was applied until at least six withdrawals occurred in ten stimuli. This minimal force required to elicit 50% positive response was recorded as the paw withdrawal threshold[73],[74].
# The paw withdrawal latency (PWL) and threshold (PWT) of thermal hyperalgesia were measured using the Ugo-Basile 37370 plantar test (Comerio, Italy). The mice were placed on a glass plate of constant temperature for 30 min before each test. Thermal thresholds of the ipsilateral hind paws were assessed three times with a 10 min interval between trials. The time(s) from irradiation to paw withdrawal was recorded as the thermal withdrawal latency. […]
smiles,measurement,setting,value
C[C@H](NC(=O)c1c(-c2ccccc2)nnn1CCOc1ccc(F)cc1)c1ccc(C(=O)O)cc1 [HL-43],IL-1β-induced nuclear translocation of STAT3 and p-STAT3,[1],suppressed
same,STAT luciferase reporter activity,STAT-Luc in ATDC5 cells,significantly inhibited
same,"Expression of Col2, Acan, and Sox9 in knee joint",[2],increased
same,Expression of Mmp13 and ColX in knee joint,[2],decreased
CCc1nc2c(C)nc(C)cc2n1-c1ccc(CCNC(=O)NS(=O)(=O)c2ccc(C)cc2)cc1 [Grapiprant],"Expression of Col2, Acan, and Sox9 in knee joint",[2],increased
same,Expression of Mmp13 and ColX in knee joint,[2],decreased
